# In patent US20240239752A1, “BICYCLIC HETEROAROMATIC INHIBITORS OF KLK5” (BioCryst Pharmaceuticals, Inc., priority 2021, published 2024):
# Molecular target: T1, recombinant human KLK5 (Homo sapiens, UniProt Q9Y337)
# T1 construct: purchased Novoprotein or R&D Systems C415 or 1108-SE
# T1 sequence (Q9Y337 23-293): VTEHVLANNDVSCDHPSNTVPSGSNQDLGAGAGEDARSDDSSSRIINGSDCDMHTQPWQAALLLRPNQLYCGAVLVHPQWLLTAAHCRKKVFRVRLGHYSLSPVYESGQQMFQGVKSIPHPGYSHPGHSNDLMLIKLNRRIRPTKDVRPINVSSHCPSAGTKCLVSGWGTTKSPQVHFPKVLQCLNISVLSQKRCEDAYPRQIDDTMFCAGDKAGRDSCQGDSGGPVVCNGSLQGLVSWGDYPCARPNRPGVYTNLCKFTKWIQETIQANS
# Assay: Kallikrein (KLK) 5 enzymatic assay (Boc-VPR-AMC fluorogenic substrate)
# Assay type: biochemical
# Conditions: recombinant human KLK5 0.1 μg/well, Boc-VPR-AMC 100 μM, pH 7.5, room temperature, 1% DMSO; tested a minimum of three times
# Procedure, shortened: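 Recombinant human KLK5 (0.1 μg/well) was preincubated with compound at room temperature in 0.1 M NaH2PO4, pH 7.5, 1% DMSO, then started with 100 μM Boc-VPR-AMC. The rate was followed at 380/460 nm, and IC50 came from percent inhibition relative to enzyme alone, with at least three runs.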
row,Structure (SMILES),IC50 [nM]
1,"Nc1nccc2ccc(-c3ccc4c(c3)C(Oc3ccccc3CC(=O)O)CCC4)cc12 (stereo not shown) [Compound 204d, 2-(2-((7-(1-aminoisoquinolin-7-yl)-1,2,3,4-tetrahydronaphthalen-1-yl)oxy)phenyl)acetic acid]",1000 to 10000
2,"COc1ccc(OCc2c3cc(-c4ccc5ccnc(N)c5c4)ccc3nn2C2CCC2)c(CC(=O)O)c1 [Compound 157d, 2-(2-((5-(1-aminoisoquinolin-7-yl)-2-cyclobutyl-2H-indazol-3-yl)methoxy)-5-methoxyphenyl)acetic acid]",1000 to 10000
3,"CCN1CCC2(CC1)C[C@@H](Oc1ccccc1CC(=O)O)c1cc(-c3ccc4ccnc(N)c4c3)ccc12 [Compound 436b, (R)-2-(2-((5-(1-aminoisoquinolin-7-yl)-1′-ethyl-2,3-dihydrospiro[indene-1,4′-piperidin]-3-yl)oxy)phenyl)acetic acid]",< 1000
4,"COC(=O)N1CCC2(CC1)CC(Oc1c(C#N)cccc1CC(=O)O)c1cc(-c3ccc4ccnc(N)c4c3)ccc12 (stereo not shown) [Compound 454c, 2-(2-((5-(1-aminoisoquinolin-7-yl)-1′-(methoxycarbonyl)-2,3-dihydrospiro[indene-1,4′-piperidin]-3-yl)oxy)-3-cyanophenyl)acetic acid]",1000 to 10000
5,"COC(=O)N1CCC2(CC1)CC(Oc1cc(F)ccc1CC(=O)O)c1cc(-c3cccc4c(N)nccc34)ccc12 (stereo not shown) [Compound 409b, 2-(2-((5-(1-aminoisoquinolin-5-yl)-1′-(methoxycarbonyl)-2,3-dihydrospiro[indene-1,4′-piperidin]-3-yl)oxy)-4-fluorophenyl)acetic acid]",< 1000
6,"Nc1nccc2c(-c3ccc4c(c3)c(COc3c(CC(=O)O)cccc3C(=O)O)nn4C3CCC3)cccc12 [Compound 177a, 2-((5-(1-aminoisoquinolin-5-yl)-1-cyclobutyl-1H-indazol-3-yl)methoxy)-3-(carboxymethyl)benzoic acid]",1000 to 10000
7,"CC(C)CCN1CCC(n2nc3ccc(-c4cccc5c(N)nccc45)cc3c2COc2ccccc2CC(=O)O)CC1 [Compound 132b, 2-(2-((5-(1-aminoisoquinolin-5-yl)-2-(1-isopentylpiperidin-4-yl)-2H-indazol-3-yl)methoxy)phenyl)acetic acid]",< 1000
8,"COCCN1CC(n2nc(COc3ccccc3CC(=O)O)c3cc(-c4cccc5c(N)nccc45)ccc32)C1 [Compound 143d, 2-(2-((5-(1-aminoisoquinolin-5-yl)-1-(1-(2-methoxyethyl)azetidin-3-yl)-1H-indazol-3-yl)methoxy)phenyl)acetic acid]",< 1000
9,"Nc1nccc2ccc(-c3ccc4c(c3)c(COc3ccccc3CC(=O)O)nn4[C@H]3CCOC3)cc12 [Compound 244b, (S)-2-(2-((5-(1-aminoisoquinolin-7-yl)-1-(tetrahydrofuran-3-yl)-1H-indazol-3-yl)methoxy)phenyl)acetic acid]",< 1000
10,"Nc1nccc2c(-c3cc(-c4ccoc4)c4c(c3)c(COc3ccccc3CC(=O)O)nn4C3CCCCO3)cccc12 (stereo not shown) [Compound 106g, 2-(2-((5-(1-aminoisoquinolin-5-yl)-7-(furan-3-yl)-1-(tetrahydro-2H-pyran-2-yl)-1H-indazol-3-yl)methoxy)phenyl)acetic acid]",< 1000
11,"COC(=O)N1CCC2(CC1)CC(Oc1ccccc1CC(=O)O)c1cc(-c3ccc4ccnc(N)c4c3)ccc12 (stereo not shown) [Compound 370c, 2-(2-((5-(1-aminoisoquinolin-7-yl)-1′-(methoxycarbonyl)-2,3-dihydrospiro[indene-1,4′-piperidin]-3-yl)oxy)phenyl)acetic acid]",< 1000
12,"Nc1nccc2ccc(-c3ccc4nn([C@H]5CCN(CCO)C5)c(COc5ccccc5CC(=O)O)c4c3)cc12 [Compound 113h, (S)-2-(2-((5-(1-aminoisoquinolin-7-yl)-2-(1-(2-hydroxyethyl)pyrrolidin-3-yl)-2H-indazol-3-yl)methoxy)phenyl)acetic acid]",1000 to 10000
13,"CCc1cccc(OCc2nn(C3CCC3)c3ccc(-c4cccc5c(N)nccc45)cc23)c1CC(=O)O [Compound 181b, 2-(2-((5-(1-aminoisoquinolin-5-yl)-1-cyclobutyl-1H-indazol-3-yl)methoxy)-6-ethylphenyl)acetic acid]",< 1000
14,"CC(C)(C)OC(=O)N1CCC2(CC1)CC(Oc1ccccc1CC(=O)O)c1cc(-c3ccc4ccnc(N)c4c3)ccc12 (stereo not shown) [Compound 348b, 2-(2-((5-(1-aminoisoquinolin-7-yl)-1′-(tert-butoxycarbonyl)-2,3-dihydrospiro[indene-1,4′-piperidin]-3-yl)oxy)phenyl)acetic acid]",< 1000
15,"CC(C(=O)O)c1ccccc1OCc1nn(C2CCOC2)c2ccc(-c3ccc4ccnc(N)c4c3)cc12 (stereo not shown) [Compound 242b, 2-(2-((5-(1-aminoisoquinolin-7-yl)-1-(tetrahydrofuran-3-yl)-1H-indazol-3-yl)methoxy)phenyl)propanoic acid]",< 1000
16,"N=C(N)c1cccc(-c2ccc3nn(C4CCCC4)c(COc4ccccc4CC(=O)O)c3c2)c1 [Compound 22c, 2-(2-((5-(3-carbamimidoylphenyl)-2-cyclopentyl-2H-indazol-3-yl)methoxy)phenyl)acetic acid]",< 1000

row,Structure (SMILES),IC50 [nM]
1,"CC(C)n1nc(COc2ccccc2CC(=O)O)c2cc(-c3ccc4[nH]nc(N)c4c3)ccc21 [Compound 32c, 2-(2-((3′-amino-1-isopropyl-1H, 1′H-[5,5′-biindazol]-3-yl)methoxy)phenyl)acetic acid]",> 10000
2,"CC(C)CCN1CC(n2nc(COc3ccccc3CC(=O)O)c3cc(-c4ccc5ccnc(N)c5c4)ccc32)C1 [Compound 146b, 2-(2-((5-(1-aminoisoquinolin-7-yl)-1-(1-isopentylazetidin-3-yl)-1H-indazol-3-yl)methoxy)phenyl)acetic acid]",< 1000
3,"COc1c(CN)cccc1-c1ccc2c(c1)c(COc1ccccc1CC(=O)O)nn2C(C)C [Compound 325b, 2-(2-((5-(3-(aminomethyl)-2-methoxyphenyl)-1-isopropyl-1H-indazol-3-yl)methoxy)phenyl)acetic acid]",< 1000
4,"CC(C)(C)OC(=O)N1CCC2(CC1)C[C@@H](Oc1ccccc1CC(=O)O)c1cc(-c3ccc4ccnc(N)c4c3)ccc12 [Compound 395b, (R)-2-(2-((5-(1-aminoisoquinolin-7-yl)-1′-(tert-butoxycarbonyl)-2,3-dihydrospiro[indene-1,4′-piperidin]-3-yl)oxy)phenyl)acetic acid]",< 1000
5,"Cc1ccc(OCc2c3cc(-c4ccc5ccnc(N)c5c4)ccc3nn2C2CCC2)c(CC(=O)O)c1 [Compound 155d, 2-(2-((5-(1-aminoisoquinolin-7-yl)-2-cyclobutyl-2H-indazol-3-yl)methoxy)-5-methylphenyl)acetic acid]",1000 to 10000
6,"CCN1CCC2(CC1)C[C@@H](Oc1ccccc1CC(=O)O)c1cc(-c3cccc4c(N)nccc34)ccc12 [Compound 418c, (R)-2-(2-((5-(1-aminoisoquinolin-5-yl)-1′-ethyl-2,3-dihydrospiro[indene-1,4′-piperidin]-3-yl)oxy)phenyl)acetic acid]",< 1000
7,"Nc1nccc2c(-c3ccc4c(c3)C(Oc3ccccc3CC(=O)O)CC4)cccc12 (stereo not shown) [Compound 200b, 2-(2-((6-(1-aminoisoquinolin-5-yl)-2,3-dihydro-1H-inden-1-yl)oxy)phenyl)acetic acid]",< 1000
8,"COc1cc(C(=N)N)cc(-c2ccc3c(c2)c(COc2ccccc2CC(=O)O)nn3C(C)C)c1 [Compound 82e, 2-(2-((5-(3-carbamimidoyl-5-methoxyphenyl)-1-isopropyl-1H-indazol-3-yl)methoxy)phenyl)acetic acid]",> 10000
9,"CC(C)n1nc(COc2ccccc2CC(=O)O)c2cc(-c3cc4cc(N)ccc4cn3)ccc21 [Compound 38c, 2-(2-((5-(6-aminoisoquinolin-3-yl)-1-isopropyl-1H-indazol-3-yl)methoxy)phenyl)acetic acid]",> 10000
10,"COCCN1CC(n2nc(COc3ccccc3CC(=O)O)c3cc(-c4ccc5ccnc(N)c5c4)ccc32)C1 [Compound 145b, 2-(2-((5-(1-aminoisoquinolin-7-yl)-1-(1-(2-methoxyethyl)azetidin-3-yl)-1H-indazol-3-yl)methoxy)phenyl)acetic acid]",< 1000
11,"Nc1nccc2ccc(-c3ccc4c(c3)[C@H](Oc3cccc(OC(F)(F)F)c3CC(=O)O)CC4)cc12 [Compound 434c, (R)-2-(2-((6-(1-aminoisoquinolin-7-yl)-2,3-dihydro-1H-inden-1-yl)oxy)-6-(trifluoromethoxy)phenyl)acetic acid]",1000 to 10000
12,"COc1ccc(CC(=O)O)c(OCc2c(C)oc3ccc(-c4cccc(C(=N)N)c4)cc23)c1 [7 g, 2-(2-((5-(3-carbamimidoylphenyl)-2-methylbenzofuran-3-yl)methoxy)-4-methoxyphenyl)acetic acid]",< 1000
13,"CC(C)n1nc(COc2ccccc2CC(=O)O)c2cc(-c3ccc4cc(N)ncc4c3)ccc21 [Compound 34c, 2-(2-((5-(3-aminoisoquinolin-7-yl)-1-isopropyl-1H-indazol-3-yl)methoxy)phenyl)acetic acid]",> 10000
14,"CC(C(=O)O)c1ccccc1OCc1nn(C2CCOC2)c2ccc(-c3cccc4c(N)nccc34)cc12 (stereo not shown) [Compound 241f, 2-(2-((5-(1-aminoisoquinolin-5-yl)-1-(tetrahydrofuran-3-yl)-1H-indazol-3-yl)methoxy)phenyl)propanoic acid]",< 1000
15,"CC[C@@H](C)n1nc(COc2ccccc2CC(=O)O)c2cc(-c3ccc4ccnc(N)c4c3)ccc21 [Compound 190e, (R)-2-(2-((5-(1-aminoisoquinolin-7-yl)-1-(sec-butyl)-1H-indazol-3-yl)methoxy)phenyl)acetic acid]",< 1000
